Key:
HCT-116 = experiment: NCI-60 antiproliferative screen (SRB); type: cell-based, human; details: 48 h
SF-268 = experiment: NCI-60 antiproliferative screen (SRB); type: cell-based, human; details: 48 h
Breast cancer subpanel = experiment: NCI-60 screen, subpanel summary; type: cell-based, human
Text: (§1) (Table 5). Moreover, the ratio of the MG-MID of the full-panel to its individual sub-panels offers the selectivity index.

CNS cancer subpanel = experiment: NCI-60 screen, subpanel summary; type: cell-based, human
Text: as §1

Colon cancer subpanel = experiment: NCI-60 screen, subpanel summary; type: cell-based, human
Text: as §1

Leukemia subpanel = experiment: NCI-60 screen, subpanel summary; type: cell-based, human
Text: as §1

Melanoma subpanel = experiment: NCI-60 screen, subpanel summary; type: cell-based, human
Text: as §1

NSCL cancer subpanel = experiment: NCI-60 screen, subpanel summary; type: cell-based, human
Text: as §1

Ovarian cancer subpanel = experiment: NCI-60 screen, subpanel summary; type: cell-based, human
Text: as §1

Prostate cancer subpanel = experiment: NCI-60 screen, subpanel summary; type: cell-based, human
Text: as §1

Renal cancer subpanel = experiment: NCI-60 screen, subpanel summary; type: cell-based, human
Text: as §1

FGFR1 = target: T1, FGFR1 (Homo sapiens, UniProt P11362); experiment: Z'-LYTE kinase assay; type: biochemical
T1 construct: purchased Invitrogen/Life Technologies
T1 sequence (P11362 22-822): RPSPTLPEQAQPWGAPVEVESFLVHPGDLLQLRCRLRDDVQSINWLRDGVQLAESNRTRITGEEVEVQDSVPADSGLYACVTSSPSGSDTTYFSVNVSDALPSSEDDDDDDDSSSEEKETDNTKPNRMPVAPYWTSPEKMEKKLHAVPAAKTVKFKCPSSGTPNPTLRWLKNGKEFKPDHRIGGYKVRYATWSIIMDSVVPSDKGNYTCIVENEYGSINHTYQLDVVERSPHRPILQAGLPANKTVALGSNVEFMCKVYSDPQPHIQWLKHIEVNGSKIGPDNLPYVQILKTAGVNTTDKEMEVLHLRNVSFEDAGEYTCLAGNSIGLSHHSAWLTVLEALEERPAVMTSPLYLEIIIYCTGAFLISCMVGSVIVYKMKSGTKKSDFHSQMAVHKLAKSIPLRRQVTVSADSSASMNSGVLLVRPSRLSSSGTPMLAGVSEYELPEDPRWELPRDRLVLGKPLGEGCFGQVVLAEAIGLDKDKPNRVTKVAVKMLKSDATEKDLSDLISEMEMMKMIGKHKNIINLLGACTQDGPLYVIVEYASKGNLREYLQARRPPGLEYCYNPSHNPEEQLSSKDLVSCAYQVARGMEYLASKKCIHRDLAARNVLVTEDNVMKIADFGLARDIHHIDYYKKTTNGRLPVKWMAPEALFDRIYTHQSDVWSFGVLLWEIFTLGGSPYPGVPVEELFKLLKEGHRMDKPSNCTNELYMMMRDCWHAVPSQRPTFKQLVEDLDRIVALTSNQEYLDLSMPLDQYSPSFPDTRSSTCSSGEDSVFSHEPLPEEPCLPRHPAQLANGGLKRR
Description: (§2) The inhibition percentages of the target compound 5l at a concentration of 10 µM were assessed using DMSO as a solvent against ten kinases, namely PTK2B, JAK1, CDK2, FGFR1, IGF1R, VEGFR-2, PDGFRα, PDGFRβ, FLT3, and Src. The Z’-LYTE® technology, which relies on FRET (Fluorescence Resonance Energy Transfer) from Invitrogen/Life Technologies, was employed for this evaluation for all kinases except VEGFR-2. The VEGFR-2 kinase assay was conducted in a 96-well streptavidin-coated plate using a recombinant human VEGFR-2/KDR ELISA kit, following the manufacturer’s instructions. […] Statistical significance was assessed using one-way analysis of variance (ANOVA), followed by the Dunnett test; data are represented as means ± SD.

JAK1 = target: T2, JAK1 (Homo sapiens, UniProt P23458); experiment: Z'-LYTE kinase assay; type: biochemical
T2 construct: purchased Invitrogen/Life Technologies
T2 sequence (P23458 whole entry): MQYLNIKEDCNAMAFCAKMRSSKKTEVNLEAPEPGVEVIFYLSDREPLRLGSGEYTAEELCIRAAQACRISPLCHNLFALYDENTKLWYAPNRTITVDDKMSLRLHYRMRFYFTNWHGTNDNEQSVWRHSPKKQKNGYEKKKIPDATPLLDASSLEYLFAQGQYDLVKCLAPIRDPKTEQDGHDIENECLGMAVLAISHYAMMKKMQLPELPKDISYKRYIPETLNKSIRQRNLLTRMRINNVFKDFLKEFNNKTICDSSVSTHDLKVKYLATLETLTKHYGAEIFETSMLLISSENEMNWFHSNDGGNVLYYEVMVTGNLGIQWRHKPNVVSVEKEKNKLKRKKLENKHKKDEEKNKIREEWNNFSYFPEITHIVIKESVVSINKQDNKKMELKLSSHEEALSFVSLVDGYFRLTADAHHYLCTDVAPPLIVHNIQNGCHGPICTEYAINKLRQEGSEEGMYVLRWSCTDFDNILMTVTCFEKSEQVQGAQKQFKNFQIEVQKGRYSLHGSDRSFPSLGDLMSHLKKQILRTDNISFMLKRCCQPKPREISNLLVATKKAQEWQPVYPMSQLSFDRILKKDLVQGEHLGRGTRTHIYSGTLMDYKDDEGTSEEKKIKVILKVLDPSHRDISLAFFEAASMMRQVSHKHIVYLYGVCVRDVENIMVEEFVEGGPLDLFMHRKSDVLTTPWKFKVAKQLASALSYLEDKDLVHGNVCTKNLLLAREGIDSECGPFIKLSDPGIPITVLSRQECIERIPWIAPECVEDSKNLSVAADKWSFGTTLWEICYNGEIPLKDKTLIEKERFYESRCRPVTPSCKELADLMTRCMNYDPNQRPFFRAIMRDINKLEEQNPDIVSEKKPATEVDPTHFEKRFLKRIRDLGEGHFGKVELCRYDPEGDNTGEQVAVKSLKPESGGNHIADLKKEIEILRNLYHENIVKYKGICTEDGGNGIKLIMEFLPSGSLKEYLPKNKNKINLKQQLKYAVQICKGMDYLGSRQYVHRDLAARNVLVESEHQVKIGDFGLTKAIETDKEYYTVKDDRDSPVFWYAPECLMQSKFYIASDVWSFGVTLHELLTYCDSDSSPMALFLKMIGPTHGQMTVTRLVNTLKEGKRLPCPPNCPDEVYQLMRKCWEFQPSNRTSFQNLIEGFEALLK
Description: as §2

PDGFRα = target: T3, PDGFRα (Homo sapiens, UniProt P16234); experiment: Z'-LYTE kinase assay; type: biochemical
T3 construct: purchased Invitrogen/Life Technologies
T3 sequence (P16234 24-1089): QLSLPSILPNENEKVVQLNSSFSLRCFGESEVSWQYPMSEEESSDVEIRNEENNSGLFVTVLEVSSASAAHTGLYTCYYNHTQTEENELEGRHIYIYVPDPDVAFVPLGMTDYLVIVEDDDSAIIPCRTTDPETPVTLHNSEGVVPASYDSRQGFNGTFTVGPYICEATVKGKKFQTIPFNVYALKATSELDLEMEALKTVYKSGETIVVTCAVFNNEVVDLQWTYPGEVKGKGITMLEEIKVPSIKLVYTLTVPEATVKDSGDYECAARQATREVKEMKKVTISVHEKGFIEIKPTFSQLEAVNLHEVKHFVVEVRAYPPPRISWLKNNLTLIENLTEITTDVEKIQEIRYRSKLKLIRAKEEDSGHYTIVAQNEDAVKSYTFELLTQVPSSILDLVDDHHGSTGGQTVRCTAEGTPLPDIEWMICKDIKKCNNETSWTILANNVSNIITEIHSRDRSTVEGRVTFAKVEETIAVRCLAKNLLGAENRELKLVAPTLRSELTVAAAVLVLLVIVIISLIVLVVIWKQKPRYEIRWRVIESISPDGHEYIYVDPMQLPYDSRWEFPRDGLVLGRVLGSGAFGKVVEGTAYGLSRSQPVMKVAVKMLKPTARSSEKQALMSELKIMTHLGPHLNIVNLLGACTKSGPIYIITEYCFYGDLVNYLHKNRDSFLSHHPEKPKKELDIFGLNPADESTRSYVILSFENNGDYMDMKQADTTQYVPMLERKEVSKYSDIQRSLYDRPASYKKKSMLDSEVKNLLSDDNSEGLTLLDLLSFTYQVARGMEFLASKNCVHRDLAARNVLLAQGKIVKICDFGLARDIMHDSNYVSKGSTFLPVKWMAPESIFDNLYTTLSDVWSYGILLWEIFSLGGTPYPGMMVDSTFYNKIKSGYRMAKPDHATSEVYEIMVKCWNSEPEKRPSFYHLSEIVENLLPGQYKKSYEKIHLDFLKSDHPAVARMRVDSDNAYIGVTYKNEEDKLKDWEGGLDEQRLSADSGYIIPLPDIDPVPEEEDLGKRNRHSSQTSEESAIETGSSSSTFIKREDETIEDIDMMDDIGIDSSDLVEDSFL
Description: as §2

SRC = target: T4, SRC (Homo sapiens, UniProt P12931); experiment: Z'-LYTE kinase assay; type: biochemical
T4 construct: purchased Invitrogen/Life Technologies
T4 sequence (P12931 whole entry): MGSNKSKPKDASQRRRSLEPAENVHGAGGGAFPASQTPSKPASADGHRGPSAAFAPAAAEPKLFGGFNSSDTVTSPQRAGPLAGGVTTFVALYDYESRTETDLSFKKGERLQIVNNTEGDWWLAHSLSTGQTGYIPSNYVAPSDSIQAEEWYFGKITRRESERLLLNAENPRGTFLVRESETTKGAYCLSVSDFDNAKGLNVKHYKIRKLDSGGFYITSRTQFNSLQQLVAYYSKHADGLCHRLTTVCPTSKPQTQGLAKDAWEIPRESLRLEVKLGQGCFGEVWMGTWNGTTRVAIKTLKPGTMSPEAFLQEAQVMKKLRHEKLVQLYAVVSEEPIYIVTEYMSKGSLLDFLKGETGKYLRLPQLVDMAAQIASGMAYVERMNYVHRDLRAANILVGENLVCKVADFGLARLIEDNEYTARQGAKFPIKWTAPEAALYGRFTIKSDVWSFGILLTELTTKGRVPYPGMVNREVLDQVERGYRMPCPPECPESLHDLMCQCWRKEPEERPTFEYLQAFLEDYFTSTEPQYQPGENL
Description: as §2

CDK2 = target: T5, CDK2 (Homo sapiens, UniProt P24941); experiment: Z'-LYTE kinase assay; type: biochemical
T5 construct: purchased Invitrogen/Life Technologies
Description: (§3) The Z’-LYTE® technology, which relies on FRET (Fluorescence Resonance Energy Transfer) from Invitrogen/Life Technologies, was employed for this evaluation for all kinases except VEGFR-2. The VEGFR-2 kinase assay was conducted in a 96-well streptavidin-coated plate using a recombinant human VEGFR-2/KDR ELISA kit, following the manufacturer’s instructions. […] Statistical significance was assessed using one-way analysis of variance (ANOVA), followed by the Dunnett test; data are represented as means ± SD.

FLT3 = target: T6, FLT3 (Homo sapiens, UniProt P36888); experiment: Z'-LYTE kinase assay; type: biochemical
T6 construct: purchased Invitrogen/Life Technologies
T6 sequence (P36888 27-993): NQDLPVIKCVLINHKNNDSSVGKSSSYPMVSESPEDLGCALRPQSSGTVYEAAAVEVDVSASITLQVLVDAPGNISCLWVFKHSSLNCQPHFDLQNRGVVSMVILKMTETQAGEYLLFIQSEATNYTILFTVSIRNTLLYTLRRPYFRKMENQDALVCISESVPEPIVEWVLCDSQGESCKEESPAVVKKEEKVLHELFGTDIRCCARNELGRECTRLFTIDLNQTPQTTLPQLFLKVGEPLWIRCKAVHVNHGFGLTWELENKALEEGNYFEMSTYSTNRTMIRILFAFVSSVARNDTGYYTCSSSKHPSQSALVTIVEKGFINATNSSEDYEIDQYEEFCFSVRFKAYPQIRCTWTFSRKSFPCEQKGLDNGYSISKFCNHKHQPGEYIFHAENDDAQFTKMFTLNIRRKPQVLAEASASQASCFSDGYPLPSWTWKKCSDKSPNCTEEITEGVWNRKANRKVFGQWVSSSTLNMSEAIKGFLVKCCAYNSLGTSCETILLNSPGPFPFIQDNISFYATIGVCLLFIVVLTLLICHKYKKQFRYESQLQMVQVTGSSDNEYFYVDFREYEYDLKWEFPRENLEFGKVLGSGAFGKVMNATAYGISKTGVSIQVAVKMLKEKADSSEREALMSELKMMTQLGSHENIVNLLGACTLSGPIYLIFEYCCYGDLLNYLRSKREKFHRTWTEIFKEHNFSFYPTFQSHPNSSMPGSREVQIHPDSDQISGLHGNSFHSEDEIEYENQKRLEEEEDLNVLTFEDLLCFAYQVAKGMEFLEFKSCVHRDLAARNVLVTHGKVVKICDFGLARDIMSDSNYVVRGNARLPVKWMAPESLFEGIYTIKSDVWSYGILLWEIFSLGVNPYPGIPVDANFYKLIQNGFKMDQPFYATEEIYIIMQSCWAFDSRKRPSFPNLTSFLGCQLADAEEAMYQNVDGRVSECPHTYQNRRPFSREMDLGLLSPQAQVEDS
Description: as §3

[1] = three separate experiments ± SD

## O=C1Nc2cc(Cl)ccc2C1=Cc1ccc(OCc2cccnc2)cc1 (mixture of isomers) [Compound 5l, (E/Z)-6-Chloro-3-[4-(pyridin-3-ylmethoxy)benzylidene] indolin-2-one]
HCT-116; Homo sapiens, 10 µM single dose, HCT-116 (Colon), read-out: Growth inhibition (%)
  inhibition at 10 µM: 93%
HCT-116; Homo sapiens, five-dose, HCT-116
  GI50: 6.97 µM
HCT-116; five-dose, HCT-116
  TGI: >100 µM
SF-268; Homo sapiens, 10 µM single dose, SF-268 (CNS), read-out: Growth inhibition (%)
  inhibition at 10 µM: 45.4%
SF-268; Homo sapiens, five-dose, SF-268
  GI50: 10.8 µM
SF-268; Homo sapiens, five-dose, SF-268, read-out: LC50 (the source's name)
  CC50: > 100 µM
SF-268; five-dose, SF-268
  TGI: 88.10 µM
Breast cancer subpanel; Homo sapiens, five-dose, Breast cancer subpanel, read-out: MG-MID (GI50)
  GI50: 8.14 µM
Breast cancer subpanel; ratio of full-panel MG-MID to Breast cancer subpanel MG-MID
  Selectivity Index: 1.50
CNS cancer subpanel; Homo sapiens, five-dose, CNS cancer subpanel, read-out: MG-MID (GI50)
  GI50: 11 µM
CNS cancer subpanel; ratio of full-panel MG-MID to CNS cancer subpanel MG-MID
  Selectivity Index: 1.11
Colon cancer subpanel; Homo sapiens, 10 µM, colon cancer, read-out: overall inhibition in panel (radar chart)
  inhibition at 10 µM: > 90%
Colon cancer subpanel; Homo sapiens, five-dose, Colon cancer subpanel, read-out: MG-MID (GI50)
  GI50: 5.97 µM
Colon cancer subpanel; ratio of full-panel MG-MID to Colon cancer subpanel MG-MID
  Selectivity Index: 2.05
Leukemia subpanel; Homo sapiens, 10 µM, leukemia, read-out: overall inhibition in panel (radar chart)
  inhibition at 10 µM: > 90%
Leukemia subpanel; Homo sapiens, five-dose, Leukemia subpanel, read-out: MG-MID (GI50)
  GI50: 3.39 µM
Leukemia subpanel; ratio of full-panel MG-MID to Leukemia subpanel MG-MID
  Selectivity Index: 3.61
Melanoma subpanel; Homo sapiens, 10 µM, melanoma, read-out: overall inhibition in panel (radar chart)
  inhibition at 10 µM: > 90%
Melanoma subpanel; Homo sapiens, five-dose, Melanoma subpanel, read-out: MG-MID (GI50)
  GI50: 10.9 µM
Melanoma subpanel; ratio of full-panel MG-MID to Melanoma subpanel MG-MID
  Selectivity Index: 1.12
NSCL cancer subpanel; Homo sapiens, five-dose, NSCL cancer subpanel, read-out: MG-MID (GI50)
  GI50: 11.7 µM
NSCL cancer subpanel; ratio of full-panel MG-MID to NSCL cancer subpanel MG-MID
  Selectivity Index: 1.05
Ovarian cancer subpanel; Homo sapiens, five-dose, Ovarian cancer subpanel, read-out: MG-MID (GI50)
  GI50: 29.4 µM
Ovarian cancer subpanel; ratio of full-panel MG-MID to Ovarian cancer subpanel MG-MID
  Selectivity Index: 0.42
Prostate cancer subpanel; Homo sapiens, five-dose, Prostate cancer subpanel, read-out: MG-MID (GI50)
  GI50: 9.78 µM
Prostate cancer subpanel; ratio of full-panel MG-MID to Prostate cancer subpanel MG-MID
  Selectivity Index: 1.25
Renal cancer subpanel; Homo sapiens, five-dose, Renal cancer subpanel, read-out: MG-MID (GI50)
  GI50: 19.8 µM
Renal cancer subpanel; ratio of full-panel MG-MID to Renal cancer subpanel MG-MID
  Selectivity Index: 0.62
FGFR1
  inhibition at 10 µM: 24.1%
JAK1
  inhibition at 10 µM: 4.17%
PDGFRα
  inhibition at 10 µM: 43.5%
SRC
  inhibition at 10 µM: 10.9%
CDK2; 10 µM, CDK2
  inhibition at 10 µM: 87.7%
CDK2; [1]
  IC50: 0.00817 ± 0.00032 µM
FLT3; 10 µM, FLT3
  inhibition at 10 µM: 92.6%
FLT3; [1]
  IC50: 0.0362 ± 0.00107 µM

— PMC11124822, “Discovery and Anticancer Screening of Novel Oxindole-Based Derivative Bearing Pyridyl Group as Potent and Selective Dual FLT3/CDK2 Kinase Inhibitor” (Pharmaceuticals, 2024)
